Reference: publication PMC10287555, “Camonsertib in DNA damage response-deficient advanced solid tumors: phase 1 trial results” (Nature Medicine, 2023)

Experiment: Treatment-related adverse events (TRAEs), TRESR
Assay type: in vivo, human
Experimental: Tolerability and safety of camonsertib was evaluated by assessment of AEs, TEAEs, serious adverse events (SAEs), DLTs, concomitant medications and procedures, physical examinations, vital sign measurements, clinical safety laboratory evaluations (hematology, chemistry and urinalysis), ECOG performance status scores and electrocardiograms.
All safety and efficacy endpoints were summarized with descriptive statistics. Safety data were summarized using the safety population, which consisted of all patients who received at least one dose of RP-3500. The DLT rate was based on the DLT-evaluable population, which included those patients in dose-escalation cohorts (M1a and M1b only) receiving ≥80% of planned doses of camonsertib, who completed all required safety evaluations and were observed through the end of cycle 1 or patients who experienced a DLT. Due to the different number of dose levels expected and the exploratory nature of the phase 1 study, anti-tumor activity parameters were primarily based on patients who received ≥1 dose of RP-3500 and had ≥1 post-baseline tumor assessment by RECIST 1.1 and/or GCIG CA-125 or PCWG3 PSA criteria, with an initial dose level of >100 mg d^−1 (dose level predicted to achieve efficacious exposure), as defined in the statistical analysis plan. Additional subgroups based on tumor types or genotypes of interest were based on this efficacy analysis set. […] Patients were, therefore, enrolled in the study and endpoints assessed regardless of sex, gender and race. No formal statistical tests were performed in this study. However, nominal P values (two-sided) were provided for the hypothesis-generating purpose of selected exploratory endpoints, without adjusting for multiplicity. A log-rank test was used in between-group comparisons for the time-to-event endpoints (PFS and DOT), and Fisher’s exact test was used in between-group comparisons for the binary endpoints (CBR, MR, etc.).

[1] = 3/4 schedule (n = 95), all grades
[2] = 5/2 schedule (n = 25), all grades

C[C@@H]1COCCN1c1cc([C@]2(O)C[C@H]3CC[C@@H](C2)O3)c2cnn(-c3cc[nH]n3)c2n1 [camonsertib]
Patients who discontinued due to treatment-related grade 3 anemia (1/120, after four cycles): 0.8%
Anemia, all grades (3/4 schedule): 64%
Anemia, grade 3 (3/4 schedule): 26%
Fatigue TRAE, grade 3 (3/4 schedule (n = 95)): 2.1%
Fatigue TRAE, overall (3/4 schedule (n = 95)): 27.4%
Neutropenia TRAE, grade 3 (3/4 schedule (n = 95)): 10.5%
Neutropenia TRAE, grade 4 (3/4 schedule (n = 95)): 3.2%
Neutropenia TRAE, overall (3/4 schedule (n = 95)): 26.3%
Thrombocytopenia TRAE, grade 3 (3/4 schedule (n = 95)): 6.3%
Thrombocytopenia TRAE, grade 4 (3/4 schedule (n = 95)): 1.1%
Thrombocytopenia TRAE, overall (3/4 schedule (n = 95)): 23.2%
Any TRAE [1]: 82 (86.3) n (%)
TRAE: Anemia [1]: 61 (64.2) n (%)
TRAE: Decreased appetite [1]: 14 (14.7) n (%)
TRAE: Diarrhea [1]: 13 (13.7) n (%)
TRAE: Dysgeusia [1]: 5 (5.3) n (%)
TRAE: Dyspnea [1]: 6 (6.3) n (%)
TRAE: Fatigue [1]: 26 (27.4) n (%)
TRAE: Nausea [1]: 23 (24.2) n (%)
TRAE: Neutrophil count decreased/neutropenia [1]: 25 (26.3) n (%)
TRAE: Platelet count decreased/thrombocytopenia [1]: 22 (23.2) n (%)
TRAE: Vomiting [1]: 9 (9.5) n (%)
TRAE: White blood cell count decreased [1]: 11 (11.6) n (%)
Any TRAE (3/4 schedule (n = 95), grade 3): 30 (31.6) n (%)
TRAE: Anemia (3/4 schedule (n = 95), grade 3): 25 (26.3) n (%)
TRAE: Decreased appetite (3/4 schedule (n = 95), grade 3): 0 n (%)
TRAE: Diarrhea (3/4 schedule (n = 95), grade 3): 0 n (%)
TRAE: Dysgeusia (3/4 schedule (n = 95), grade 3): 0 n (%)
TRAE: Dyspnea (3/4 schedule (n = 95), grade 3): 0 n (%)
TRAE: Fatigue (3/4 schedule (n = 95), grade 3): 2 (2.1) n (%)
TRAE: Nausea (3/4 schedule (n = 95), grade 3): 0 n (%)
TRAE: Neutrophil count decreased/neutropenia (3/4 schedule (n = 95), grade 3): 10 (10.5) n (%)
TRAE: Platelet count decreased/thrombocytopenia (3/4 schedule (n = 95), grade 3): 6 (6.3) n (%)
TRAE: Vomiting (3/4 schedule (n = 95), grade 3): 0 n (%)
TRAE: White blood cell count decreased (3/4 schedule (n = 95), grade 3): 4 (4.2) n (%)
Any TRAE (3/4 schedule (n = 95), grade 4): 4 (4.2) n (%)
TRAE: Anemia (3/4 schedule (n = 95), grade 4): 0 n (%)
TRAE: Decreased appetite (3/4 schedule (n = 95), grade 4): 0 n (%)
TRAE: Diarrhea (3/4 schedule (n = 95), grade 4): 0 n (%)
TRAE: Dysgeusia (3/4 schedule (n = 95), grade 4): 0 n (%)
TRAE: Dyspnea (3/4 schedule (n = 95), grade 4): 0 n (%)
TRAE: Fatigue (3/4 schedule (n = 95), grade 4): 0 n (%)
TRAE: Nausea (3/4 schedule (n = 95), grade 4): 0 n (%)
TRAE: Neutrophil count decreased/neutropenia (3/4 schedule (n = 95), grade 4): 3 (3.2) n (%)
TRAE: Platelet count decreased/thrombocytopenia (3/4 schedule (n = 95), grade 4): 1 (1.1) n (%)
TRAE: Vomiting (3/4 schedule (n = 95), grade 4): 0 n (%)
TRAE: White blood cell count decreased (3/4 schedule (n = 95), grade 4): 0 n (%)
Nausea TRAE, overall (3/4 schedule (n = 95), all grade <3): 24.2%
Anemia, all grades (5/2 schedule): 80%
Anemia, grade 3 (5/2 schedule): 52%
Any TRAE [2]: 22 (88.0) n (%)
TRAE: Anemia [2]: 20 (80.0) n (%)
TRAE: Decreased appetite [2]: 4 (16.0) n (%)
TRAE: Diarrhea [2]: 0 n (%)
TRAE: Dysgeusia [2]: 1 (4.0) n (%)
TRAE: Dyspnea [2]: 5 (20.0) n (%)
TRAE: Fatigue [2]: 7 (28.0) n (%)
TRAE: Nausea [2]: 3 (12.0) n (%)
TRAE: Neutrophil count decreased/neutropenia [2]: 6 (24.0) n (%)
TRAE: Platelet count decreased/thrombocytopenia [2]: 7 (28.0) n (%)
TRAE: Vomiting [2]: 3 (12.0) n (%)
TRAE: White blood cell count decreased [2]: 1 (4.0) n (%)
Any TRAE (5/2 schedule (n = 25), grade 3): 14 (56.0) n (%)
TRAE: Anemia (5/2 schedule (n = 25), grade 3): 13 (52.0) n (%)
TRAE: Decreased appetite (5/2 schedule (n = 25), grade 3): 0 n (%)
TRAE: Diarrhea (5/2 schedule (n = 25), grade 3): 0 n (%)
TRAE: Dysgeusia (5/2 schedule (n = 25), grade 3): 0 n (%)
TRAE: Dyspnea (5/2 schedule (n = 25), grade 3): 0 n (%)
TRAE: Fatigue (5/2 schedule (n = 25), grade 3): 1 (4.0) n (%)
TRAE: Nausea (5/2 schedule (n = 25), grade 3): 0 n (%)
TRAE: Neutrophil count decreased/neutropenia (5/2 schedule (n = 25), grade 3): 3 (12.0) n (%)
TRAE: Platelet count decreased/thrombocytopenia (5/2 schedule (n = 25), grade 3): 2 (8.0) n (%)
TRAE: Vomiting (5/2 schedule (n = 25), grade 3): 0 n (%)
TRAE: White blood cell count decreased (5/2 schedule (n = 25), grade 3): 0 n (%)
Any TRAE (5/2 schedule (n = 25), grade 4): 1 (4.0) n (%)
TRAE: Anemia (5/2 schedule (n = 25), grade 4): 0 n (%)
TRAE: Decreased appetite (5/2 schedule (n = 25), grade 4): 0 n (%)
TRAE: Diarrhea (5/2 schedule (n = 25), grade 4): 0 n (%)
TRAE: Dysgeusia (5/2 schedule (n = 25), grade 4): 0 n (%)
TRAE: Dyspnea (5/2 schedule (n = 25), grade 4): 0 n (%)
TRAE: Fatigue (5/2 schedule (n = 25), grade 4): 0 n (%)
TRAE: Nausea (5/2 schedule (n = 25), grade 4): 0 n (%)
TRAE: Neutrophil count decreased/neutropenia (5/2 schedule (n = 25), grade 4): 1 (4.0) n (%)
TRAE: Platelet count decreased/thrombocytopenia (5/2 schedule (n = 25), grade 4): 1 (4.0) n (%)
TRAE: Vomiting (5/2 schedule (n = 25), grade 4): 0 n (%)
TRAE: White blood cell count decreased (5/2 schedule (n = 25), grade 4): 0 n (%)
Tolerability (120 patients): well tolerated
Anemia TRAE of any grade (all dose levels/schedules): 67.5%
Anemia, grade 3 (most common drug-related toxicity) (all patients): 32%
Anemia, grade 4 (both schedules): no grade 4 anemia was observed
